Columns and labels:
Assay type in all cases: functional
Escherichia coli = experiment: Antibacterial activity against Escherichia coli NCIM 2803 at 20 ug/ml after 24 hr by agar diffusion method; settings: NCIM 2803, 24 h, read-out: IZ
Bacillus subtilis = experiment: Antibacterial activity against Bacillus subtilis NCIM 2545 at 20 ug/ml after 24 hr by agar diffusion method; settings: NCIM 2545, 24 h, read-out: IZ
Staphylococcus aureus = experiment: Antibacterial activity against Staphylococcus aureus NCIM 5021 at 20 ug/ml after 24 hr by agar diffusion method; settings: NCIM 5021, 24 h, read-out: IZ
[1] = test system: Staphylococcus epidermidis; experiment: Antibacterial activity against Staphylococcus epidermidis NCIM 2493 at 20 ug/ml after 24 hr by agar diffusion method; settings: NCIM 2493, 24 h, read-out: IZ
G-361 [2] = experiment: Cytotoxicity against Homo sapiens (human) G361 cells assessed as cell growth at 10^-7 M by SRB assay relative to control; settings: read-out: Activity
G-361 [3] = experiment: Cytotoxicity against Homo sapiens (human) G361 cells assessed as cell growth at 10^-6 M by SRB assay relative to control; settings: read-out: Activity
G-361 [4] = experiment: Cytotoxicity against Homo sapiens (human) G361 cells assessed as cell growth at 10^-5 M by SRB assay relative to control; settings: read-out: Activity
G-361 [5] = experiment: Cytotoxicity against Homo sapiens (human) G361 cells assessed as cell growth at 10^-4 M by SRB assay relative to control; settings: read-out: Activity
G-361 [6] = experiment: Cytotoxicity against Homo sapiens (human) G361 cells by SRB assay

Molecule c1ccc(NCc2nc(Nc3ccccc3)c3cnn(-c4ccccc4)c3n2)cc1 has a zone of inhibition at 20 µg/mL (Escherichia coli) of 13.3 mm, a zone of inhibition at 20 µg/mL (Bacillus subtilis) of 13.6 mm and a zone of inhibition at 20 µg/mL (Staphylococcus aureus) of 13.2 mm. It also gave a zone of inhibition at 20 µg/mL [1] of 13 mm, a growth at 0.1 µM (G-361 [2]) of 100% and a growth at 1 µM (G-361 [3]) of 100%. It also gave a growth at 10 µM (G-361 [4]) of 99.7%, a growth at 100 µM (G-361 [5]) of 48.5% and a GI50 (G-361 [6]) greater than 100 µM. For the same molecule, the LC50 (G-361 [6]) was greater than 100 µM and the TGI (G-361 [6]) was greater than 100 µM.
Molecule c1ccc(-n2ncc3c(N4CCOCC4)ncnc32)cc1 has a zone of inhibition at 20 µg/mL (Escherichia coli) of 13.3 mm, a zone of inhibition at 20 µg/mL (Bacillus subtilis) of 12.8 mm and a zone of inhibition at 20 µg/mL (Staphylococcus aureus) of 13.6 mm. The zone of inhibition at 20 µg/mL [1] was 12.7 mm, the growth at 0.1 µM (G-361 [2]) was 100% and the growth at 1 µM (G-361 [3]) was 100%. For the same molecule, the growth at 10 µM (G-361 [4]) was 100%, the growth at 100 µM (G-361 [5]) was 61.5% and the GI50 (G-361 [6]) was greater than 100 µM. It also gave an LC50 (G-361 [6]) greater than 100 µM and a TGI (G-361 [6]) greater than 100 µM.
Work on CCCNc1nc(C)nc2c1cnn2-c1ccccc1 yielded a zone of inhibition at 20 µg/mL (Escherichia coli) of 12.7 mm, a zone of inhibition at 20 µg/mL (Bacillus subtilis) of 13 mm and a zone of inhibition at 20 µg/mL (Staphylococcus aureus) of 13.6 mm. It also gave a zone of inhibition at 20 µg/mL [1] of 13.6 mm, a growth at 0.1 µM (G-361 [2]) of 100% and a growth at 1 µM (G-361 [3]) of 100%. For the same molecule, the growth at 10 µM (G-361 [4]) was 100%, the growth at 100 µM (G-361 [5]) was 25.3% and the GI50 (G-361 [6]) was 36 µM. It also gave an LC50 (G-361 [6]) greater than 100 µM and a TGI (G-361 [6]) greater than 100 µM.
With Cc1nc(NC(C)C)c2cnn(-c3ccccc3)c2n1 the zone of inhibition at 20 µg/mL (Escherichia coli) was 13 mm, the zone of inhibition at 20 µg/mL (Bacillus subtilis) was 13.6 mm and the zone of inhibition at 20 µg/mL (Staphylococcus aureus) was 13.3 mm. For the same molecule, the zone of inhibition at 20 µg/mL [1] was 13.7 mm, the growth at 0.1 µM (G-361 [2]) was 100% and the growth at 1 µM (G-361 [3]) was 100%. It also gave a growth at 10 µM (G-361 [4]) of 100%, a growth at 100 µM (G-361 [5]) of 13.5% and a GI50 (G-361 [6]) of 32 µM. The LC50 (G-361 [6]) was greater than 100 µM and the TGI (G-361 [6]) was greater than 100 µM.
Work on Cc1nc(NCc2ccco2)c2cnn(-c3ccccc3)c2n1 yielded a zone of inhibition at 20 µg/mL (Escherichia coli) of 13.6 mm, a zone of inhibition at 20 µg/mL (Bacillus subtilis) of 12.5 mm and a zone of inhibition at 20 µg/mL (Staphylococcus aureus) of 12.7 mm. It also gave a zone of inhibition at 20 µg/mL [1] of 13.3 mm, a growth at 0.1 µM (G-361 [2]) of 100% and a growth at 1 µM (G-361 [3]) of 100%. It also gave a growth at 10 µM (G-361 [4]) of 100%, a growth at 100 µM (G-361 [5]) of 30.1% and a GI50 (G-361 [6]) of 39 µM. It also gave an LC50 (G-361 [6]) greater than 100 µM and a TGI (G-361 [6]) greater than 100 µM.
In the case of Cc1nc(N2CCOCC2)c2cnn(-c3ccccc3)c2n1, the zone of inhibition at 20 µg/mL (Escherichia coli) is reported as 12.7 mm, the zone of inhibition at 20 µg/mL (Bacillus subtilis) is reported as 13.6 mm and the zone of inhibition at 20 µg/mL (Staphylococcus aureus) is reported as 13.3 mm. For the same molecule, the zone of inhibition at 20 µg/mL [1] was 13.6 mm, the growth at 0.1 µM (G-361 [2]) was 100% and the growth at 1 µM (G-361 [3]) was 100%. The growth at 10 µM (G-361 [4]) was 99.8%, the growth at 100 µM (G-361 [5]) was 43.9% and the GI50 (G-361 [6]) was greater than 100 µM. It also gave an LC50 (G-361 [6]) greater than 100 µM and a TGI (G-361 [6]) greater than 100 µM.
Work on Cc1nc(Nc2ccccc2)c2cnn(-c3ccccc3)c2n1 yielded a zone of inhibition at 20 µg/mL (Escherichia coli) of 13.3 mm, a zone of inhibition at 20 µg/mL (Bacillus subtilis) of 13.6 mm and a zone of inhibition at 20 µg/mL (Staphylococcus aureus) of 13.4 mm. The zone of inhibition at 20 µg/mL [1] was 13.6 mm, the growth at 0.1 µM (G-361 [2]) was 100% and the growth at 1 µM (G-361 [3]) was 100%. For the same molecule, the growth at 10 µM (G-361 [4]) was 100%, the growth at 100 µM (G-361 [5]) was 65.6% and the GI50 (G-361 [6]) was greater than 100 µM. For the same molecule, the LC50 (G-361 [6]) was greater than 100 µM and the TGI (G-361 [6]) was greater than 100 µM.
In the case of CCN(CC)c1nc(C)nc2c1cnn2-c1ccccc1, the zone of inhibition at 20 µg/mL (Escherichia coli) is reported as 13.6 mm, the zone of inhibition at 20 µg/mL (Bacillus subtilis) is reported as 13.1 mm and the zone of inhibition at 20 µg/mL (Staphylococcus aureus) is reported as 13.7 mm. The zone of inhibition at 20 µg/mL [1] was 13.3 mm, the growth at 0.1 µM (G-361 [2]) was 100% and the growth at 1 µM (G-361 [3]) was 100%. The growth at 10 µM (G-361 [4]) was 100%, the growth at 100 µM (G-361 [5]) was 61.8% and the GI50 (G-361 [6]) was greater than 100 µM. It also gave an LC50 (G-361 [6]) greater than 100 µM and a TGI (G-361 [6]) greater than 100 µM.
Cc1nc(NCc2ccccc2)c2cnn(-c3ccccc3)c2n1 was tested, and the zone of inhibition at 20 µg/mL (Escherichia coli) was 12.6 mm, the zone of inhibition at 20 µg/mL (Bacillus subtilis) was 13.3 mm and the zone of inhibition at 20 µg/mL (Staphylococcus aureus) was 13.1 mm. It also gave a zone of inhibition at 20 µg/mL [1] of 12.7 mm, a growth at 0.1 µM (G-361 [2]) of 100% and a growth at 1 µM (G-361 [3]) of 100%. The growth at 10 µM (G-361 [4]) was 100%, the growth at 100 µM (G-361 [5]) was 45.5% and the GI50 (G-361 [6]) was greater than 100 µM. It also gave an LC50 (G-361 [6]) greater than 100 µM and a TGI (G-361 [6]) greater than 100 µM.
Work on CCNc1nc(C)nc2c1cnn2-c1ccccc1 yielded a zone of inhibition at 20 µg/mL (Escherichia coli) of 13.4 mm, a zone of inhibition at 20 µg/mL (Bacillus subtilis) of 13.3 mm and a zone of inhibition at 20 µg/mL (Staphylococcus aureus) of 13.3 mm. The zone of inhibition at 20 µg/mL [1] was 13.3 mm, the growth at 0.1 µM (G-361 [2]) was 100% and the growth at 1 µM (G-361 [3]) was 100%. It also gave a growth at 10 µM (G-361 [4]) of 99.6%, a growth at 100 µM (G-361 [5]) of 29.2% and a GI50 (G-361 [6]) of 38.7 µM. It also gave an LC50 (G-361 [6]) greater than 100 µM and a TGI (G-361 [6]) greater than 100 µM.
With COc1ccccc1Nc1nc(C)nc2c1cnn2-c1ccccc1 the zone of inhibition at 20 µg/mL (Escherichia coli) was 13.5 mm, the zone of inhibition at 20 µg/mL (Bacillus subtilis) was 13.4 mm and the zone of inhibition at 20 µg/mL (Staphylococcus aureus) was 13.3 mm. For the same molecule, the zone of inhibition at 20 µg/mL [1] was 13.6 mm.
With CCCNc1nc(CC)nc2c1cnn2-c1ccccc1 the zone of inhibition at 20 µg/mL (Escherichia coli) was 13.6 mm, the zone of inhibition at 20 µg/mL (Bacillus subtilis) was 13 mm and the zone of inhibition at 20 µg/mL (Staphylococcus aureus) was 13.3 mm. It also gave a zone of inhibition at 20 µg/mL [1] of 13.3 mm, a growth at 0.1 µM (G-361 [2]) of 100% and a growth at 1 µM (G-361 [3]) of 94.7%. It also gave a growth at 10 µM (G-361 [4]) of 84.7%, a growth at 100 µM (G-361 [5]) of -34.7% and a GI50 (G-361 [6]) of 2.2 µM. It also gave an LC50 (G-361 [6]) greater than 100 µM and a TGI (G-361 [6]) of 37 µM.
COc1cccc2c1C(=O)c1c(O)c3c(c(O)c1C2=O)C[C@@](O)(C(=O)CO)C[C@@H]3O[C@H]1C[C@H](N)[C@H](O)[C@H](C)O1 [DOXORUBICIN] gave a growth at 0.1 µM (G-361 [2]) of -24%, a growth at 1 µM (G-361 [3]) of -62.5% and a growth at 10 µM (G-361 [4]) of -64.2%. For the same molecule, the growth at 100 µM (G-361 [5]) was -70.7%, the GI50 (G-361 [6]) was less than 0.1 µM and the TGI (G-361 [6]) was less than 0.1 µM.
